# Laboratory results reported in PubChem BioAssay AID2060497 (Molecular Pharmacology Branch, DTP, NCI, 2025).
# Where “and” joins values, the source holds several entries; their conditions need not be identical. Equal entries are not always repeated.
# Test system: 317291-083-R-J1-PDC complex spheroids, viability
# Experiment: Anticancer human tumor 317291-083-R-J1-PDC patient-derived soft tissue sarcoma cell line growth inhibition [GQUAD]
# Details: for viability, T/C: stronger effect = lower value
# From the text: DNA G-quadruplex Stabilizer Agents in Combinations in Complex Spheroids
# A high-throughput screen of multi-cell type tumor spheroids was designed to identify active combinations of DNA G-quadruplex stabilizer agents and targeted small molecules. Complex spheroids include a stromal component modeled by human endothelial cells (HUVEC) and fibroblasts modeled by human mesenchymal stem cells (MSCs). The concentration ranges selected for each drug and investigational agent were based upon clinically achievable concentrations if the clinical Cmax of the agent was known.
# Compounds. The drugs and investigational agents: pidnarulex (CX-5461; NSC782164), APTO-253 (NSC789042), BRACO-19 (NSC847499), peposertib (NSC802822), ceralasertib (NSC780249), elimusertib (NSC800525), camonsertib (NSC841442), AZD-1390 (NSC803789), olaparib (NSC753686), talazoparib (NSC767125), ART-558 (NSC835418), sotorasib (NSC818433), MRTX-1133 (NSC836407), SN-38 (NSC673596), topotecan (NSC609699), etoposide (NSC141540), doxorubicin (NSC123127), gemcitabine (NSC613327), 5-fluorouracil (NSC19893), paclitaxel (NSC125973), vemurafenib (NSC761431), panobinostat (NSC761190), R-306465 (JNJ-16241199; NSC773264), adavosertib (NSC754352), TP-3654 (NSC805149), carboplatin (NSC241240), KSQ-4279 (NSC840948), and staurosporine (NSC755774) were obtained from the National Cancer Institute (NCI) Developmental Therapeutics Program Chemical Repository (34). The FDA-approved anticancer drug set is available from the NCI Developmental Therapeutics Program. […] The stock solutions were prepared in dimethyl sulfoxide (DMSO, Sigma-Aldrich, St. Louis, MO, cat. D2650) at 800-fold the tested concentration and stored at -70 degrees C prior to their use. All drugs and investigational agents were tested over a range starting from a high concentration at or near the clinical Cmax and decreasing in half-log increments. If the clinical Cmax for an agent had not been determined, the highest concentration tested was 10 microM.
# 2.3 Cell Culture. All cells were maintained in an incubator at 37 degrees C and 5% CO2 with 95% humidity. The PDC lines were cultured according to standard operating procedures established by the NCI PDMR. All PDCs were thawed and cultured in Matrigel-coated flasks prepared with a working solution of 1X Ham's F-12 nutrient mix, without supplementation (Invitrogen, cat. 11765054), 100 U/mL penicillin-streptomycin (Invitrogen, cat. 15140122), and 2.5% Matrigel (Corning Inc., cat. 354248) for the first three passages. The 857933-349-R-J2-PDC line was cultured in 6C/Colon 1B media, which includes advanced DMEM/F-12 (Thermo Fisher Scientific, cat. 12634028), 10 mM HEPES (Thermo Fisher Scientific, cat. 15630080), 1X GlutaMAX supplement (Thermo Fisher Scientific, cat. 35050061), 0.1 mg/mL primocin (InvivoGen, cat. ant-pm-2), 10% defined fetal bovine serum, heat inactivated (HyClone Laboratories Inc., cat. SH30070.03HI), 50% L-WRN conditioned media (ATCC, cat. CRL-3276), 1.25 mM N-Acetyl-L-cysteine (Sigma-Aldrich, cat. A9165), 10 mM nicotinamide (Sigma-Aldrich, cat. N0636), 1X B-27 supplement (Thermo Fisher Scientific, cat. 17504044), 1X N-2 supplement (Thermo Fisher Scientific, cat. 17502048), 10 microM Y-27632 dihydrochloride (Tocris Bioscience, cat. 1254), and 50 ng/mL human EGF recombinant protein (Thermo Fisher Scientific, cat. PHG0311). The 485176-168-R4-J1-PDC line was cultured in Panc media, which includes all 6C/Colon 1B media components plus 100 ng/mL human FGF-10 (Thermo Fisher Scientific, cat. 100-26), 500 nM SB-431542 (Selleckchem, cat. S1067), and gastrin (Tocris, cat. 3006).
# […]
# [1] = curve of first compound, second compound 0.0316 µM
# [2] = curve of first compound, second compound 0.1 µM
# [3] = curve of first compound, second compound 0.316 µM
# [4] = curve of first compound, second compound 1 µM
# [5] = curve of first compound, second compound 3.16 µM
# [6] = curve of first compound, second compound 10 µM
# [7] = second compound 0.0316 µM, first compound 0.0316 µM
# [8] = second compound 0.0316 µM, first compound 0.1 µM
# [9] = second compound 0.0316 µM, first compound 0.316 µM
# [10] = second compound 0.0316 µM, first compound 1 µM
# [11] = second compound 0.0316 µM, first compound 3.16 µM
# [12] = second compound 0.0316 µM, first compound 10 µM
# [13] = second compound 0.1 µM, first compound 0.0316 µM
# [14] = second compound 0.1 µM, first compound 0.1 µM
# [15] = second compound 0.1 µM, first compound 0.316 µM
# [16] = second compound 0.1 µM, first compound 1 µM
# [17] = second compound 0.1 µM, first compound 3.16 µM
# [18] = second compound 0.1 µM, first compound 10 µM
# [19] = second compound 0.316 µM, first compound 0.0316 µM
# [20] = second compound 0.316 µM, first compound 0.1 µM
# [21] = second compound 0.316 µM, first compound 0.316 µM
# [22] = second compound 0.316 µM, first compound 1 µM
# [23] = second compound 0.316 µM, first compound 3.16 µM
# [24] = second compound 0.316 µM, first compound 10 µM
# [25] = second compound 1 µM, first compound 0.0316 µM
# [26] = second compound 1 µM, first compound 0.1 µM
# [27] = second compound 1 µM, first compound 0.316 µM
# [28] = second compound 1 µM, first compound 1 µM
# [29] = second compound 1 µM, first compound 3.16 µM
# [30] = second compound 1 µM, first compound 10 µM
# [31] = second compound 3.16 µM, first compound 0.0316 µM
# [32] = second compound 3.16 µM, first compound 0.1 µM
# [33] = second compound 3.16 µM, first compound 0.316 µM
# [34] = second compound 3.16 µM, first compound 1 µM
# [35] = second compound 3.16 µM, first compound 3.16 µM
# [36] = second compound 3.16 µM, first compound 10 µM
# [37] = second compound 10 µM, first compound 0.0316 µM
# [38] = second compound 10 µM, first compound 0.1 µM
# [39] = second compound 10 µM, first compound 0.316 µM
# [40] = second compound 10 µM, first compound 1 µM
# [41] = second compound 10 µM, first compound 3.16 µM
# [42] = second compound 10 µM, first compound 10 µM
# 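Note: spheroids exposed to compounds for one week before readout.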
# 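Throughout, for viability, T/C: percent viability relative to DMSO vehicle wells taken as 100%.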
smiles,measurement,setting,value
Cc1cccc(N(C)C(=O)C2C(O)CCN2c2nc(C)cc(C(F)(F)F)c2C#N)c1 (stereo not drawn) + Cc1[nH]c2ccc(F)cc2c1-c1nc2c3cccnc3c3ncccc3c2[nH]1,IC50,[1],> 10000 nM
same,IC50,[2],> 10000 nM
same,IC50,[3],> 10000 nM
same,IC50,[4],> 10000 nM
same,IC50,[5],> 10000 nM
same,IC50,[6],> 10000 nM
same,"viability, T/C",[7],112%
same,"viability, T/C",[8],113%
same,"viability, T/C",[9],105%
same,"viability, T/C",[10],120%
same,"viability, T/C",[11],100%
same,"viability, T/C",[12],91.9%
same,"viability, T/C",[13],117%
same,"viability, T/C",[14],95.1%
same,"viability, T/C",[15],118%
same,"viability, T/C",[16],104%
same,"viability, T/C",[17],121%
same,"viability, T/C",[18],87.7%
same,"viability, T/C",[19],102%
same,"viability, T/C",[20],111%
same,"viability, T/C",[21],102%
same,"viability, T/C",[22],113%
same,"viability, T/C",[23],121%
same,"viability, T/C",[24],93.4%
same,"viability, T/C",[25],126%
same,"viability, T/C",[26],112%
same,"viability, T/C",[27],121%
same,"viability, T/C",[28],111%
same,"viability, T/C",[29],102%
same,"viability, T/C",[30],86.7%
same,"viability, T/C",[31],111%
same,"viability, T/C",[32],113%
same,"viability, T/C",[33],107%
same,"viability, T/C",[34],110%
same,"viability, T/C",[35],111%
same,"viability, T/C",[36],69%
same,"viability, T/C",[37],95.1%
same,"viability, T/C",[38],89.6%
same,"viability, T/C",[39],101%
same,"viability, T/C",[40],104%
same,"viability, T/C",[41],92.5%
same,"viability, T/C",[42],108%
CC(C)(O)C1CCC(Nc2ccc3ncc(-c4cccc(C(F)(F)F)c4)n3n2)CC1 (stereo not drawn) + CN(C)c1ccc(Nc2c3ccc(NC(=O)CCN4CCCC4)cc3nc3cc(NC(=O)CCN4CCCC4)ccc23)cc1,IC50,[1],789 nM
same,IC50,[2],691 nM
same,IC50,[3],455 nM
same,IC50,[4],44.7 nM
same,IC50,[5],< 31.6 nM
same,IC50,[6],< 31.6 nM
same,"viability, T/C",[7],103%
same,"viability, T/C",[8],106%
same,"viability, T/C",[9],99.8%
same,"viability, T/C",[10],37.1%
same,"viability, T/C",[11],0.9%
same,"viability, T/C",[12],0.94%
same,"viability, T/C",[13],97.5%
same,"viability, T/C",[14],92.2%
same,"viability, T/C",[15],102%
same,"viability, T/C",[16],27.6%
same,"viability, T/C",[17],0.49%
same,"viability, T/C",[18],0.46%
same,"viability, T/C",[19],65.9%
same,"viability, T/C",[20],65.7%
same,"viability, T/C",[21],72%
same,"viability, T/C",[22],11.3%
same,"viability, T/C",[23],0.66%
same,"viability, T/C",[24],0.64%
same,"viability, T/C",[25],59.3%
same,"viability, T/C",[26],25.4%
same,"viability, T/C",[27],28.7%
same,"viability, T/C",[28],3.69%
same,"viability, T/C",[29],0.2%
same,"viability, T/C",[30],0.13%
same,"viability, T/C",[31],5.54%
same,"viability, T/C",[32],1.6%
same,"viability, T/C",[33],6.22%
same,"viability, T/C",[34],0.39%
same,"viability, T/C",[35],0.12%
same,"viability, T/C",[36],0.29%
same,"viability, T/C",[37],0.6%
same,"viability, T/C",[38],0.45%
same,"viability, T/C",[39],0.27%
same,"viability, T/C",[40],0.46%
same,"viability, T/C",[41],0.22%
same,"viability, T/C",[42],0.31%
Cn1ncnc1[C@H]1c2n[nH]c(=O)c3cc(F)cc(c23)N[C@@H]1c1ccc(F)cc1,"viability, T/C",compound 0.000999 µM,123% and 104% (2×)
same,"viability, T/C",compound 0.00316 µM,109% and 92.2% and 102%
same,"viability, T/C",compound 0.00999 µM,99.7% and 95.3% and 94.3%
same,"viability, T/C",compound 0.0316 µM,86.2% and 89.7% and 90.5%
same,"viability, T/C",compound 0.0999 µM,98.2% and 67.3% and 84.9%
same,"viability, T/C",compound 0.316 µM,64.2% and 62.6% and 69%
same,IC50,curve of compound,> 316 nM
COc1cccc2c1C(=O)c1c(O)c3c(c(O)c1C2=O)CC(O)(C(=O)CO)CC3OC1CC(N)C(O)C(C)O1 (stereo not drawn) + CN(C)c1ccc(Nc2c3ccc(NC(=O)CCN4CCCC4)cc3nc3cc(NC(=O)CCN4CCCC4)ccc23)cc1,IC50,[1],71.7 nM
same,IC50,[2],65.3 nM
same,IC50,[3],57.4 nM
same,IC50,[4],< 31.6 nM
same,IC50,[5],< 31.6 nM
same,IC50,[6],< 31.6 nM
same,"viability, T/C",[7],82.7%
same,"viability, T/C",[8],32.4%
same,"viability, T/C",[9],21.1%
same,"viability, T/C",[10],13.2%
same,"viability, T/C",[11],0.97%
same,"viability, T/C",[12],0.41%
same,"viability, T/C",[13],64.1%
same,"viability, T/C",[14],41.8%
same,"viability, T/C",[15],22.2%
same,"viability, T/C",[16],12.1%
same,"viability, T/C",[17],1.05%
same,"viability, T/C",[18],0.35%
same,"viability, T/C",[19],64.2%
same,"viability, T/C",[20],35.1%
same,"viability, T/C",[21],23.6%
same,"viability, T/C",[22],8.77%
same,"viability, T/C",[23],1.59%
same,"viability, T/C",[24],0.73%
same,"viability, T/C",[25],29.1%
same,"viability, T/C",[26],18.6%
same,"viability, T/C",[27],14.9%
same,"viability, T/C",[28],3.06%
same,"viability, T/C",[29],0.9%
same,"viability, T/C",[30],0.65%
same,"viability, T/C",[31],28.8%
same,"viability, T/C",[32],15.1%
same,"viability, T/C",[33],12.1%
same,"viability, T/C",[34],4.09%
same,"viability, T/C",[35],0.51%
same,"viability, T/C",[36],0.86%
same,"viability, T/C",[37],9.63%
same,"viability, T/C",[38],7.93%
same,"viability, T/C",[39],3.54%
same,"viability, T/C",[40],1.41%
same,"viability, T/C",[41],1.22%
same,"viability, T/C",[42],0.51%
